In brackets after ≈: the same amount, converted by molar mass.
Assays:
[1] = Evaluation test of water solubility (saturated solubility); assay type: physicochemical; settings: phosphate buffer (pH 7); for solubility at 30 min: aqueous buffer, thermodynamic from solid, ultrasonicated 30 minutes
Experimental: An excessive amount of a test compound was added to 10 mL of phosphate buffer (pH 7) and the resultant was ultrasonicated for 30 minutes. The resulting suspension was filtered and 0.5 mL of acetonitrile was added to 0.5 mL of the filtrate to obtain a test solution. The concentration of the test compound in the test solution was determined by high performance liquid chromatography to calculate the saturated solubility. Roflumilast was used in Comparative Example 1.

[2] = Evaluation test of skin permeability (Franz diffusion cell); assay type: in vitro ADME; settings: hairless mouse skin; for Jmax (maximum skin permeation rate) / Cumulative Amount of Permeation for 24 hours: 1 w/w % in dimethyl sulfoxide, 100 μL, 32° C.
Experimental: Skin was excised from the back of a hairless mouse and the section of the skin was placed in a Franz diffusion cell (glass cell) so that a solution of each of test compounds (compounds of Examples, Comparative Example, or Reference Examples) was contacted with the epidermal side of the section of the skin (applied area: 1 cm^2). Phosphate buffered physiological saline (PBS) was used as a flow solution. The flow rate was set to 5 mL/hour and the temperature of thermoregulated bath was set to 32° C. Next, dimethyl sulfoxide was added to achieve the concentration of the test compound of 1 w/w % and the resultant was stirred thoroughly to prepare a solution of the test compound. The donor chamber of the Franz diffusion cell was charged with 100 μL of the resulting solution of the test compound. The flow solution was sampled every 2 hours until 24 hours after the charge of the test compound solution. The flow solutions sampled every 2 hours were diluted two-fold by adding acetonitrile and the diluted solution was centrifuged to give supernatants as an HPLC analytical sample. Each of the resulting analytical samples was analyzed by high performance liquid chromatography to calculate the maximum skin permeation rate (Jmax) and the cumulative amount of permeation for 24 hours. Roflumilast was used in Comparative Example 1.

[3] = tested on: human liver enzyme fraction; test: In vitro metabolism test (metabolic rate into roflumilast); assay type: in vitro ADME; settings: treated with human liver enzyme fractions
Experimental: A human liver enzyme fraction was added to 100 mmol/L Tris-HCl buffer containing coenzymes (NADPH-producing) so as to achieve the concentration of 0.5 mg protein/mL and the resultant was pre-incubated at 37° C. for 5 minutes. A test compound was added to this solution so as to achieve the concentration of 0.1 μmol/L and the resultant was incubated at 37° C. for an hour. The reaction was then stopped by adding water-cooled acetonitrile. The resulting solution was filtered and then quantified by using LC-MS/MS to calculate the metabolic rate (%) into roflumilast. It is noted that “with heat treatment” in Table 1 means using a human liver enzyme fraction subjected to heat treatment before adding to thereby inactivate a metabolic enzyme therein.
Numerical values in Table 1 represent metabolic rates (%) into rofiumilast. […] Roflumilast was not produced when metabolic enzymes were inactivated by heat treatments prior to using the human liver enzyme fractions.

O=C(Nc1c(Cl)cncc1Cl)c1ccc(OC(F)F)c(OCC2CC2)c1 [Comparative Example 1, N-(3,5-dichloropyrid-4-yl)-3-cyclopropylmethoxy-4-difluoromethoxybenzamide, reference compound]
solubility at 30 min [1]: 0.000373 mg/mL (≈ 0.925 µM)
Ratio to Roflumilast (saturated solubility) [1]: 1
Jmax (maximum skin permeation rate) [2]: 0.0 μg/cm^2/hr
Cumulative Amount of Permeation for 24 hours [2]: 0.0 μg/cm^2
skin permeability (in words) ([2]; up to 24 hours): no skin permeability even after 24 hours

N#CCN(C(=O)c1ccc(OC(F)F)c(OCC2CC2)c1)c1c(Cl)cncc1Cl [Example 1, N-cyanomethyl-N-(3,5-dichloropyrid-4-yl)-3-cyclopropylmethoxy-4-difluoromethoxybenzamide]
solubility at 30 min [1]: 0.00164 mg/mL (≈ 3.72 µM)
Ratio to Roflumilast (saturated solubility) [1]: 4.4
Jmax (maximum skin permeation rate) [2]: 1.2 μg/cm^2/hr
Cumulative Amount of Permeation for 24 hours [2]: 12.1 μg/cm^2

O=C(c1ccc(OC(F)F)c(OCC2CC2)c1)N(CCO)c1c(Cl)cncc1Cl [Example 2, N-(3,5-dichloropyrid-4-yl)-N-(2-hydroxyethyl)-3-cyclopropylmethoxy-4-difluoromethoxybenzamide]
solubility at 30 min [1]: 0.0125 mg/mL (≈ 27.9 µM)
Ratio to Roflumilast (saturated solubility) [1]: 33.4
Jmax (maximum skin permeation rate) [2]: 10.7 μg/cm^2/hr
Cumulative Amount of Permeation for 24 hours [2]: 157.7 μg/cm^2

CN(C(=O)c1ccc(OC(F)F)c(OCC2CC2)c1)c1c(Cl)cncc1Cl [Example 3, N-(3,5-dichloropyrid-4-yl)-N-methyl-3-cyclopropylmethoxy-4-difluoromethoxybenzamide]
solubility at 30 min [1]: 0.0097 mg/mL (≈ 23.2 µM)
Ratio to Roflumilast (saturated solubility) [1]: 26.0
Jmax (maximum skin permeation rate) [2]: 3.2 μg/cm^2/hr
Cumulative Amount of Permeation for 24 hours [2]: 51.0 μg/cm^2

O=C(c1ccc(OC(F)F)c(OCC2CC2)c1)N(CCCO)c1c(Cl)cncc1Cl [Example 5, N-(3,5-dichloropyrid-4-yl)-N-(3-hydroxypropan-1-yl)-3-cyclopropylmethoxy-4-difluoromethoxybenzamide]
Jmax (maximum skin permeation rate) [2]: 8.5 μg/cm^2/hr
Cumulative Amount of Permeation for 24 hours [2]: 163.5 μg/cm^2

COCN(C(=O)c1ccc(OC(F)F)c(OCC2CC2)c1)c1c(Cl)cncc1Cl [Example 6, N-(3,5-dichloropyrid-4-yl)-N-methoxymethyl-3-cyclopropylmethoxy-4-difluoromethoxybenzamide]
Jmax (maximum skin permeation rate) [2]: 1.2 μg/cm^2/hr
Cumulative Amount of Permeation for 24 hours [2]: 17.6 μg/cm^2

NC(=O)CN(C(=O)c1ccc(OC(F)F)c(OCC2CC2)c1)c1c(Cl)cncc1Cl [Reference Example 1, N-carbamoylmethyl-N-(3,5-dichloropyrid-4-yl)-3-cyclopropylmethoxy-4-difluoromethoxybenzamide, reference compound]
production of roflumilast by human liver enzyme fractions (in words) [3]: did not produce roflumilast
solubility at 30 min [1]: 0.0166 mg/mL (≈ 36 µM)
Ratio to Roflumilast (saturated solubility) [1]: 44.5
Jmax (maximum skin permeation rate) [2]: 0.9 μg/cm^2/hr
Cumulative Amount of Permeation for 24 hours [2]: 7.2 μg/cm^2

O=C(O)CN(C(=O)c1ccc(OC(F)F)c(OCC2CC2)c1)c1c(Cl)cncc1Cl [Reference Example 2, N-carboxymethyl-N-(3,5-dichloropyrid-4-yl)-3-cyclopropylmethoxy-4-difluoromethoxybenzamide, reference compound]
production of roflumilast by human liver enzyme fractions (in words) [3]: did not produce roflumilast
solubility at 30 min [1]: 0.612 mg/mL (≈ 1330 µM)
Ratio to Roflumilast (saturated solubility) [1]: 1640.2
Jmax (maximum skin permeation rate) [2]: 9.5 μg/cm^2/hr
Cumulative Amount of Permeation for 24 hours [2]: 56.9 μg/cm^2

Source: patent publication US9969688B2, “Roflumilast prodrugs” (HISAMITSU PHARMACEUTICAL CO., INC., priority 2014, dated 2018)
